Consider 27 compounds from patent US10407422B2, “Triazolopyridine inhibitors of myeloperoxidase” (priority 2015, dated 2019).

As usually defined, the IC50 is the concentration needed to halve the response being measured. Lower therefore signals greater potency in that assay.

Assay [1] concerns the target T1, myeloperoxidase (MPO) (Homo sapiens (Human), UniProt P05164). In words: MPO peroxidation assay (Amplex Red assay). The class given is biochemical. The settings on record: potency range class. The gist of the method:
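IC50 values come from a four-parameter fit of rates taken from the linear 180-540 s portion of a 15 min kinetic read of resorufin (Ex 535/Em 590 nm). Amplex Red (200 μM) plus 10 mM H2O2 was added after a 10 min room-temperature preincubation of inhibitor with 200 pM MPO and 40 nM H2O2 in 100 mM KPi, pH 7.4.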

Assay [2] addresses T1, myeloperoxidase (MPO). In words: MPO chlorination assay (APF assay). The class given is biochemical. To be noted: potency range class. An outline of the steps: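 Chlorinating activity followed by APF cleavage to fluorescein (485/535 nm, 3 min kinetic read) after adding APF and 10 μM H2O2. Beforehand, 200 pM enzyme, compound and 120 mM NaCl sat 10 min at room temperature in 100 mM KPi, pH 7.4. Initial-rate slopes gave % inhibition; IC50 by Hill-slope fit.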

SMILES strings stand for the structures.

T1 sequence (P05164 49-745): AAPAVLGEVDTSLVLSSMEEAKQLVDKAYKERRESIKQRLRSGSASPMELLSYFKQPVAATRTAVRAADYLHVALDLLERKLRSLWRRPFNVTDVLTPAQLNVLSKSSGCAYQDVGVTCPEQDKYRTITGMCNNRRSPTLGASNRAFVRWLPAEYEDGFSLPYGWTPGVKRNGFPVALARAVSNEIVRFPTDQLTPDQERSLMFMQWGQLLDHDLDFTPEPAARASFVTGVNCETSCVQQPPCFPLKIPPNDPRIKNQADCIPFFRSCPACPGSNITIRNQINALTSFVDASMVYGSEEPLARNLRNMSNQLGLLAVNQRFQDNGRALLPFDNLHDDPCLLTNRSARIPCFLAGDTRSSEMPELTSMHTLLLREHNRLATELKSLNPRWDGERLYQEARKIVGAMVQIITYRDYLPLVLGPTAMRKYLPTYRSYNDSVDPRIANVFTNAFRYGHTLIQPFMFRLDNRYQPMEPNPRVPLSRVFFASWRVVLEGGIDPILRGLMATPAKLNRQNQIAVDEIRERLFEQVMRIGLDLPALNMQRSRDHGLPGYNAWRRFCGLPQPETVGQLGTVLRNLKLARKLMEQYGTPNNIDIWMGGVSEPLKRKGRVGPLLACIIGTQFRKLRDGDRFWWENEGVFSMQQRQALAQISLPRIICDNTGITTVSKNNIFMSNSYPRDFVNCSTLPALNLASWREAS

As for `Nc1cc(Cc2cnn(Cc3cccc(C4CNC4)c3)c2)c2nn[nH]c2n1` [Example 210, 7-[(1-{[3-(Azetidin-3-yl)phenyl]methyl}-1H-pyrazol-4-yl)methyl]-3H-[1,2,3]triazolo[4,5-b]pyridin-5-amine], the IC50 in assay [1] and in assay [2] was 1 to 100 nM throughout.

As to `Nc1cc(Cc2cnn(Cc3ccc4c(c3)CC[C@@H]4N)c2)c2nn[nH]c2n1` [Example 270, 7-[(1-{[(1S)-1-Amino-2,3-dihydro-1H-inden-5-yl]methyl}-1H-pyrazol-4-yl)methyl]-3H-[1,2,3]triazolo[4,5-b]pyridin-5-amine], the half-inhibitory concentration (IC50) in assay [1] and in assay [2] was 101 to 999 nM in each case.

As for `Nc1cc(Cc2cnn(Cc3ccc(Cn4cccn4)cc3)c2)c2nn[nH]c2n1` [Example 109, 7-((1-(4-((1H-Pyrazol-1-yl)methyl)benzyl)-1H-pyrazol-4-yl)methyl)-3H-[1,2,3]triazolo[4,5-b]pyridin-5-amine], the concentration for half-maximal inhibition (IC50) in assay [1] lay in the range of 1 to 100 nM; in assay [2] it was 101 to 999 nM.

As for `COC(=O)[C@@H]1C[C@@H](Oc2cccc(Cn3cc(Cc4cc(N)nc5[nH]nnc45)cn3)c2)CN1` [Example 245, Methyl (2S,4R)-4-(3-{[4-({5-amino-3H-[1,2,3]triazolo[4,5-b]pyridin-7-yl}methyl)-1H-pyrazol-1-yl]methyl}phenoxy)pyrrolidine-2-carboxylate], the 50% inhibitory concentration (IC50) in assay [1] and in assay [2] was 101 to 999 nM each time.

Consider `Nc1cc(Cc2cnn(C[C@@H]3C[C@H](Oc4ccc(F)cc4)CN3)c2)c2nn[nH]c2n1` [Example 280, 7-[(1-{[(2S,4S)-4-(4-Fluorophenoxy)pyrrolidin-2-yl]methyl}-1H-pyrazol-4-yl)methyl]-3H-[1,2,3]triazolo[4,5-b]pyridin-5-amine], for which the IC50 in assay [1] is 1 to 100 nM; in assay [2] it was 101 to 999 nM.

As to `CCn1c(Cn2cc(Cc3cc(N)nc4[nH]nnc34)cn2)nc2ccccc21` [Example 138, 7-((1-((1-Ethyl-1H-benzo[d]imidazol-2-yl)methyl)-1H-pyrazol-4-yl)methyl)-3H-[1,2,3]triazolo[4,5-b]pyridin-5-amine], the 50% inhibitory concentration (IC50) in assay [1] was in the range of 1 to 100 nM; in assay [2], 101 to 999 nM.

As to `Nc1cc(Cc2cnn(Cc3cc(F)cc([C@@H]4CCNC4)c3)c2)c2nn[nH]c2n1` [Example 195, 7-{[1-({3-Fluoro-5-[(3S)-pyrrolidin-3-yl]phenyl}methyl)-1H-pyrazol-4-yl]methyl}-3H-[1,2,3]triazolo[4,5-b]pyridin-5-amine], the IC50 in assay [1] and in assay [2] was 1 to 100 nM each time.

For `COc1cc(Cn2cc(Cc3cc(N)nc4[nH]nnc34)cn2)cc([C@@H]2CCNC2)c1` [Example 197, 7-{[1-({3-Methoxy-5-[(3S)-pyrrolidin-3-yl]phenyl}methyl)-1H-pyrazol-4-yl]methyl}-3H-[1,2,3]triazolo[4,5-b]pyridin-5-amine], the IC50 in assay [1] and in assay [2] was 1 to 100 nM throughout.

As to `CC(CO)NC(=O)c1ccc(Cn2cc(Cc3cc(N)nc4[nH]nnc34)cn2)cc1` (stereo not drawn) [Example 87, 4-{[4-({5-Amino-3H-[1,2,3]triazolo[4,5-b]pyridin-7-yl}methyl)-1H-pyrazol-1-yl]methyl}-N-(1-hydroxypropan-2-yl)benzamide], the IC50 is 1 to 100 nM in assay [1] and 101 to 999 nM in assay [2].

Turning to `Nc1cc(Cc2cnn(Cc3cccc(Oc4cccc5c4CNCC5)c3)c2)c2nn[nH]c2n1` [Example 237, 7-[(1-{[3-(1,2,3,4-Tetrahydroisoquinolin-8-yloxy)phenyl]methyl}-1H-pyrazol-4-yl)methyl]-3H-[1,2,3]triazolo[4,5-b]pyridin-5-amine], the IC50 in assay [1] and in assay [2] was 1 to 100 nM throughout.

In the case of `Nc1cc(Cc2cnn(Cc3cccc(OCCC4CCc5ccccc54)c3)c2)c2nn[nH]c2n1` (stereo not drawn) [Example 233, 7-{[1-({3-[2-(2,3-Dihydro-1H-inden-1-yl)ethoxy]phenyl}methyl)-1H-pyrazol-4-yl]methyl}-3H-[1,2,3]triazolo[4,5-b]pyridin-5-amine], the 50% inhibitory concentration (IC50) in assay [1] and in assay [2] was 101 to 999 nM each time.

On to `COc1cc2ccc(Cn3cc(Cc4cc(N)nc5[nH]nnc45)cn3)cc2cn1` [Example 172, 7-((1-((3-Methoxyisoquinolin-7-yl)methyl)-1H-pyrazol-4-yl)methyl)-3H-[1,2,3]triazolo[4,5-b]pyridin-5-amine], for which the IC50 fell in the range of 1 to 100 nM in assay [1] and 101 to 999 nM in assay [2].

For `Cc1nc(-c2ccc(Cl)cc2)sc1Cn1cc(Cc2cc(N)nc3[nH]nnc23)cn1` [Example 119, 7-((1-((2-(4-Chlorophenyl)-4-methylthiazol-5-yl)methyl)-1H-pyrazol-4-yl)methyl)-3H-[1,2,3]triazolo[4,5-b]pyridin-5-amine], the half-inhibitory concentration (IC50) in assay [1] was in the range of 1 to 100 nM; in assay [2], 101 to 999 nM.

Consider `NC(=O)CNC(=O)c1ccc(Cn2cc(Cc3cc(N)nc4[nH]nnc34)cn2)cc1` [Example 90, 2-[(4-{[4-({5-Amino-3H-[1,2,3]triazolo[4,5-b]pyridin-7-yl}methyl)-1H-pyrazol-1-yl]methyl}phenyl)formamido]acetamide], for which the results for the IC50 in assay [1] and in assay [2] were 1 to 100 nM and 101 to 999 nM, respectively.

With `Nc1cc(Cc2cnn(Cc3cccc4c3CCCC4)c2)c2nn[nH]c2n1` [Example 135, 7-{[1-(5,6,7,8-Tetrahydronaphthalen-1-ylmethyl)-1H-pyrazol-4-yl]methyl}-3H-[1,2,3]triazolo[4,5-b]pyridin-5-amine], the IC50 in assay [1] and in assay [2] was 1 to 100 nM each time.

For the compound `Nc1cc(Cc2cnn(C[C@H]3C[C@H](Oc4ccc(F)cc4)CN3)c2)c2nn[nH]c2n1` [Example 282, 7-[(1-{[(2R,4S)-4-(4-Fluorophenoxy)pyrrolidin-2-yl]methyl}-1H-pyrazol-4-yl)methyl]-3H-[1,2,3]triazolo[4,5-b]pyridin-5-amine], the IC50 in assay [1] and in assay [2] was 1 to 100 nM in each case.

For the compound `CC(C)(C)OC(=O)N1CCCc2ccc(Cn3cc(Cc4cc(N)nc5[nH]nnc45)cn3)cc21` [Example 147, tert-Butyl 7-{[4-({5-amino-3H-[1,2,3]triazolo[4,5-b]pyridin-7-yl}methyl)-1H-pyrazol-1-yl]methyl}-1,2,3,4-tetrahydroquinoline-1-carboxylate], the IC50 in assay [1] and in assay [2] was 101 to 999 nM each time.

In the case of `Nc1cc(Cn2nnc3cccc(Cl)c32)c2nn[nH]c2n1` [Example 165, 7-[(7-Chloro-1H-1,2,3-benzotriazol-1-yl)methyl]-3H-[1,2,3]triazolo[4,5-b]pyridin-5-amine], the IC50 in assay [1] and in assay [2] was 101 to 999 nM in each case.

As to `COc1cc2cc(Cn3cc(Cc4cc(N)nc5[nH]nnc45)cn3)ccc2cn1` [Example 173, 7-((1-((3-Methoxyisoquinolin-6-yl)methyl)-1H-pyrazol-4-yl)methyl)-3H-[1,2,3]triazolo[4,5-b]pyridin-5-amine], the IC50 is 1 to 100 nM in assay [1] and 101 to 999 nM in assay [2].

With `Nc1cc(Cc2cnn(Cc3cccc(OC(F)F)c3)c2)c2nn[nH]c2n1` [Example 61, 7-((1-(3-(Difluoromethoxy)benzyl)-1H-pyrazol-4-yl)methyl)-3H-[1,2,3]triazolo[4,5-b]pyridin-5-amine], the half-maximal inhibitory concentration (IC50) in assay [1] and in assay [2] was 1 to 100 nM each time.

Take `Nc1cc(Cc2cnn(Cc3cccc(N4CCNC5(CCCCC5)C4)c3)c2)c2nn[nH]c2n1` [Example 223, 7-({1-[(3-{1,4-Diazaspiro[5.5]undecan-4-yl}phenyl)methyl]-1H-pyrazol-4-yl}methyl)-3H-[1,2,3]triazolo[4,5-b]pyridin-5-amine]: the concentration for half-maximal inhibition (IC50) in assay [1] lay within 101 to 999 nM; in assay [2] it was 1 to 100 nM.

For the compound `Nc1cc(Cc2cnn(Cc3cccc(-c4ccccn4)c3)c2)c2nn[nH]c2n1` [Example 133, 7-[(1-{[3-(Pyridin-2-yl)phenyl]methyl}-1H-pyrazol-4-yl)methyl]-3H-[1,2,3]triazolo[4,5-b]pyridin-5-amine], the concentration for half-maximal inhibition (IC50) in assay [1] and in assay [2] was 1 to 100 nM each time.

For the compound `CN1CCC(c2cccc(Cn3cc(Cc4cc(N)nc5[nH]nnc45)cn3)c2)CC1` [Example 209, 7-[(1-{[3-(1-Methylpiperidin-4-yl)phenyl]methyl}-1H-pyrazol-4-yl)methyl]-3H-[1,2,3]triazolo[4,5-b]pyridin-5-amine], the IC50 in assay [1] and in assay [2] was 101 to 999 nM each time.

`Nc1cc(Cc2cnn(Cc3cccc(O[C@H]4CCNC4)c3)c2)c2nn[nH]c2n1` [Example 240, 7-{[1-({3-[(3S)-Pyrrolidin-3-yloxy]phenyl}methyl)-1H-pyrazol-4-yl]methyl}-3H-[1,2,3]triazolo[4,5-b]pyridin-5-amine]: the IC50 in assay [1] and in assay [2] was 1 to 100 nM in each case.

For `N#Cc1ccc(Cn2cc(Cc3cc(N)nc4[nH]nnc34)cn2)cc1F` [Example 272, 4-{[4-({5-Amino-3H-[1,2,3]triazolo[4,5-b]pyridin-7-yl}methyl)-1H-pyrazol-1-yl]methyl}-2-fluorobenzonitrile], the figures for the IC50 in assay [1] and in assay [2] were 1 to 100 nM and 101 to 999 nM, respectively.

Turning to `Nc1cc(Cc2cnn(Cc3ccc(C(=O)NCCc4cnc[nH]4)cc3)c2)c2nn[nH]c2n1` [Example 83, 4-{[4-({5-Amino-3H-[1,2,3]triazolo[4,5-b]pyridin-7-yl}methyl)-1H-pyrazol-1-yl]methyl}-N-[2-(1H-imidazol-4-yl)ethyl]benzamide], the half-inhibitory concentration (IC50) lay within 1 to 100 nM in assay [1] and 101 to 999 nM in assay [2].

`Nc1cc(Cc2cnn(Cc3cc([C@@H]4CC(=O)NC4CO)cc(C(F)(F)F)c3)c2)c2nn[nH]c2n1` (stereo partly drawn) [Example 201, (4S)-4-(3-{[4-({5-Amino-3H-[1,2,3]triazolo[4,5-b]pyridin-7-yl}methyl)-1H-pyrazol-1-yl]methyl}-5-(trifluoromethyl)phenyl)-5-(hydroxymethyl)pyrrolidin-2-one]: the half-inhibitory concentration (IC50) in assay [1] and in assay [2] was 1 to 100 nM in each case.
